From ChEMBL document CHEMBL1143119, “Novel methylene-linked heterocyclic EP1 receptor antagonists” (Bioorg Med Chem Lett, 2008) come the findings set out here.

Molecules are shown by their SMILES.

One may read the IC50 as the concentration that inhibits the measured activity by half. A low value points to greater potency in that assay. Usually logD stands for the decadic logarithm of the distribution of all forms, ionised or not, between an organic phase and buffer at a given pH. A high value points to a more lipophilic compound. A word on the Ki: it is a measure of affinity in units of concentration, obtained from inhibition or displacement. A high value points to a looser hold on the target.

In data set [1] the target is T1, Prostaglandin E2 receptor EP1 subtype (Homo sapiens, UniProt P34995).
T1 sequence (P34995 whole entry): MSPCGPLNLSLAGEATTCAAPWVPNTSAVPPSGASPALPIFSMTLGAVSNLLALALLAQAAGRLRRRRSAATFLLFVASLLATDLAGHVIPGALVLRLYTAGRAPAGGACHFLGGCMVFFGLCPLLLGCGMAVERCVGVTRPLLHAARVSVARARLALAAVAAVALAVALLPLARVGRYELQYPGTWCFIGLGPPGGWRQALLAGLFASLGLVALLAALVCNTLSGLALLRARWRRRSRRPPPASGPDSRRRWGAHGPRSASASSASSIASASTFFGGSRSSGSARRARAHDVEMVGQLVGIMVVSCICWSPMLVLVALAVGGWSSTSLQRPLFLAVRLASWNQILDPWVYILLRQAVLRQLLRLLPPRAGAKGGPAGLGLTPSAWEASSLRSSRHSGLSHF
Put plainly: Displacement of [3H]PGE2 from EP1 receptor. On the technique in general: Loss of bound radioactivity is the signal in a displacement assay; it reports binding, not function.

Data set [2] can be described thus: Distribution coefficient, log D at pH 7.8. Format: physicochemical. As to conditions: octanol/water.
Data set [3] concerns the target T1, Prostaglandin E2 receptor EP1 subtype. As to the kind of experiment: Antagonist activity at EP1 receptor by FLIPR assay. It is filed as functional.

With `O=C(O)c1csc(-c2cc(Cl)ccc2OCc2ccccc2)n1`, the IC50 in data set [1] is 631 nM.

In turn, `O=C(O)c1cccc(Cc2cc(Cl)ccc2OCc2ccccc2)c1` gave an IC50 in data set [1] of 316 nM. The molecule further displayed a logD in data set [2] of 3.

In data set [1], `O=C(O)c1cccc(Nc2ccccc2OCc2ccccc2)n1` gave an IC50 greater than 1000 nM.

Take `CC(C)COc1ccc(Cl)cc1Cc1nc(C(=O)O)cs1`: the IC50 in data set [1] is 7.94 nM.

In data set [1], `O=C(O)c1cccc(Cc2cc(Cl)ccc2OCc2ccccc2)n1` had an IC50 of 158 nM. This molecule also gave a logD in data set [2] of 2.2.

`O=C(O)c1csc(Cc2cc(Cl)ccc2OCc2ccccc2)n1` had an IC50 in data set [1] of 6.31 nM. The logD in data set [2] is 1.2.

In data set [1], `Cc1cc(C(=O)O)nn1Cc1cc(Cl)ccc1OCc1ccccc1` showed an IC50 of 10 nM. Also, the logD in data set [2] was found to be 1.

The molecule `O=C(O)c1nc(Cc2cc(Cl)ccc2OCc2ccccc2)cs1` showed an IC50 in data set [1] of 25.1 nM. For the same molecule, the logD in data set [2] is 1.1.

Molecule `Cc1cc(C(=O)O)oc1Cc1cc(Cl)ccc1OCc1ccccc1` gave an IC50 in data set [1] of 10 nM. Further, in data set [2], the logD came to 1.8. In data set [3], the inhibition constant (Ki) is 2 nM.

In data set [1], `O=C(O)c1c[nH]c(Cc2cc(Cl)ccc2OCc2ccccc2)n1` showed an IC50 greater than 1000 nM. In data set [2], this molecule returned a logD of 0.6.

On to `O=C(O)c1coc(Cc2cc(Cl)ccc2OCc2ccccc2)n1`, for which the IC50 in data set [1] is 20 nM. In data set [2], the logD came out at 0.5. The molecule further had a Ki in data set [3] of 1.58 nM.

As to `O=C(O)c1csc(Nc2cc(Cl)ccc2OCc2ccccc2)n1`, in data set [1], the IC50 was 25.1 nM.

`Cc1ccc(-c2cc(Cl)ccc2OCC(C)C)n1-c1cccc(C(=O)O)c1` had a logD in data set [2] of 3.1.

In turn, `Cc1cc(C(=O)O)cn1Cc1cc(Cl)ccc1OCc1ccccc1` showed an IC50 in data set [1] of 158 nM. Besides, the logD in data set [2] worked out at 3.

In data set [1], `O=C(O)Cc1csc(-c2cc(Cl)ccc2OCc2ccccc2)n1` showed an IC50 of 50.1 nM.

In data set [1], `O=C(O)c1ccnc(Cc2cc(Cl)ccc2OCc2ccccc2)c1` showed an IC50 greater than 1000 nM. The same molecule came in with a logD in data set [2] of 1.1.

Turning to `CC(C)COc1ccc(Cl)cc1Cc1ccc(C(=O)O)o1`, the IC50 in data set [1] is 3.16 nM. This molecule gave a Ki in data set [3] of 0.316 nM.

In turn, `Cc1cc(C(=O)O)nn1Cc1cc(Cl)ccc1OCC(C)C` showed an IC50 in data set [1] of 10 nM. The affinity in data set [3] corresponds to a Ki of 0.794 nM.

`Cn1c(C(=O)O)cnc1Cc1cc(Cl)ccc1OCc1ccccc1` showed an IC50 in data set [1] greater than 1000 nM. Also, the logD in data set [2] was 0.7.

In data set [2], `O=C(O)c1cccc(C2=C(c3cc(Cl)ccc3OCc3ccccc3)CCC2)c1` yielded a logD of 3.

For `O=C(O)c1ccc(Cc2cc(Cl)ccc2OCc2ccccc2)o1`, the IC50 in data set [1] is 6.31 nM. Besides, in data set [2], the logD was determined as 1.5. In data set [3], this molecule showed a Ki of 2 nM.

As for `Cn1cc(C(=O)O)nc1Cc1cc(Cl)ccc1OCc1ccccc1`, in data set [1], the IC50 is 316 nM. This molecule also registered a pH-dependent lipophilicity (logD) in data set [2] of 0.7.

Regarding `O=C(O)c1csc(Cc2cc(Cl)ccc2OCc2ccccc2)c1`, the IC50 in data set [1] was 39.8 nM. The same molecule came in with a logD in data set [2] of 2.8.

With `O=C(O)c1cccc(Oc2cc(Cl)ccc2OCc2ccccc2)n1`, the IC50 in data set [1] was 794 nM.

`O=C(O)c1cnc(Cc2cc(Cl)ccc2OCc2ccccc2)s1` showed an IC50 in data set [1] of 631 nM. In addition, the logD in data set [2] amounted to 0.9.

With `O=C(O)c1cncc(Cc2cc(Cl)ccc2OCc2ccccc2)c1`, in data set [1], the IC50 was 631 nM. Further, the logD in data set [2] is 1.4.

As to `O=C(O)c1ccn(Cc2cc(Cl)ccc2OCc2ccccc2)n1`, the IC50 in data set [1] is 79.4 nM. The molecule further returned a logD in data set [2] of 0.7.

For the molecule `CC(C)COc1ccc(Cl)cc1Cc1cccc(C(=O)O)n1`, the half-maximal inhibitory concentration (IC50) in data set [1] is 39.8 nM. Also, in data set [3], the affinity corresponds to a Ki of 158 nM.

As for `O=C(O)Cc1csc(Cc2cc(Cl)ccc2OCc2ccccc2)n1`, the IC50 in data set [1] was greater than 1000 nM.

In turn, `Cc1ccc(-c2cc(Cl)ccc2OCc2ccccc2)n1-c1cccc(C(=O)O)c1` gave a logD in data set [2] of 2.5.

For the molecule `Cc1cc(CC(=O)O)nn1-c1cc(Cl)ccc1OCc1ccccc1`, in data set [1], the IC50 was greater than 1000 nM.

Regarding `Cc1cc(C(=O)O)nn1Cc1cc(Br)ccc1OCc1ccccc1`, the IC50 in data set [1] was 6.31 nM. Also, in data set [2], the logD was 1.2.

Take `O=C(O)c1ccc(Cc2cc(Cl)ccc2OCc2ccccc2)s1`: in data set [1], the 50% inhibitory concentration (IC50) was 50.1 nM. For the same molecule, in data set [2], the logD stood at 2.3. The molecule also gave a Ki in data set [3] of 15.8 nM.
